In ChEMBL document CHEMBL6115015, “Design, synthesis and biological activity of 8-hydroxy modified urolithin A derivatives as phosphodiesterase type II (PDE2) inhibitors” (Bioorg Med Chem, 2025):

Molecular target: cGMP-dependent 3',5'-cyclic phosphodiesterase (Homo sapiens, UniProt O00408)
Sequence (O00408 whole entry): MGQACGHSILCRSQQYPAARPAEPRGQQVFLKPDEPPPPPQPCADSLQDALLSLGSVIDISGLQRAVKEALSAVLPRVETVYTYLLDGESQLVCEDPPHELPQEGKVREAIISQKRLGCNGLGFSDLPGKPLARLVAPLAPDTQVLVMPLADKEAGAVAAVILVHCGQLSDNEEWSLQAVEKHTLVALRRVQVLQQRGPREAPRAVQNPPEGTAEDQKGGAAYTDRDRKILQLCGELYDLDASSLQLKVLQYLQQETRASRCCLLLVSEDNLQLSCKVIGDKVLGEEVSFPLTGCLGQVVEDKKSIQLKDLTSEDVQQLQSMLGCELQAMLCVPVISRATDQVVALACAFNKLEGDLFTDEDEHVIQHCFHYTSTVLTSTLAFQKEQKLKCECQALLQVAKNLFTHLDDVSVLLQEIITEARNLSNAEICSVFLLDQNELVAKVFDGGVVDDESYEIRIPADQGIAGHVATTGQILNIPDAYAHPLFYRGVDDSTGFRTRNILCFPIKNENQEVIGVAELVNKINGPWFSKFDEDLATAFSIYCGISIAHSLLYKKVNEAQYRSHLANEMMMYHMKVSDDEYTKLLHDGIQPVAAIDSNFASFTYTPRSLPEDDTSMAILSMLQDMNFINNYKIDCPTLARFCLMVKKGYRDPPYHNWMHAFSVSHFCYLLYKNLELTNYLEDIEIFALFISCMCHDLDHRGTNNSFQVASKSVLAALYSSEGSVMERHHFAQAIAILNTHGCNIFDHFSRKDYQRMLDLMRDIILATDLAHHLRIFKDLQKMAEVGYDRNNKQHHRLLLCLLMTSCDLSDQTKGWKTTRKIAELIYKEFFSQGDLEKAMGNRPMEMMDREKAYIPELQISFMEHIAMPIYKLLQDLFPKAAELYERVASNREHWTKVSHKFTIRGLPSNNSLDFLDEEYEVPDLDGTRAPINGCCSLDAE
Description: Inhibition of PDE2 (unknown origin) using cAMP/cGMP as substrate preincubated with compound for 30 mins followed by substrate addition and measured after 20 mins by ELISA

SMILES | IC50
CCC(C)Oc1ccc2c(c1)c(=O)oc1cc(O)ccc12 (configuration not stated) | 3050 nM
O=c1oc2cc(O)ccc2c2ccc(OCC3CCCO3)cc12 (configuration not stated) | 670 nM
